In PubChem BioAssay AID248 (DTP/NCI, 2004):
Several values for one entry are separate records, joined by “and”; a condition that tells them apart may be missing. Equal values may be shown once. Toxic doses and inconclusive results are not listed. Rule as the data show it: active = T/C of 150% or more; inactive = T/C below 125%.

System: L1210 leukemia ip in BDF1 mice, survival T/C
Assay: NCI In Vivo Anticancer Drug Screen. Data for tumor model L1210 Leukemia (intraperitoneal) in B6D2F1 (BDF1) mice
Settings: endpoint: mean survival time, higher = longer survival
Outline: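 Tumor was transplanted into mice, which were then dosed with test compound or vehicle alone. Survival was recorded for each group, and the treated figure was expressed relative to the control figure.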

[1] = dose: 100.0 mg/kg/injection, schedule: Q01DX009 (ip), vehicle: saline with Tween-80
[2] = dose: 200.0 mg/kg/injection, schedule: Q01DX009 (ip), vehicle: saline with Tween-80
[3] = dose: 400.0 mg/kg/injection, schedule: Q01DX009 (ip), vehicle: saline with Tween-80
[4] = dose: 400.0 mg/kg/injection, schedule: Q01DX001 (ip), vehicle: other
[5] = dose: 50.0 mg/kg/injection, schedule: Q01DX009 (ip), vehicle: saline with Tween-80
[6] = dose: 100.0 mg/kg/injection, schedule: Q04DX003 (ip), vehicle: Klucel (hydroxypropylcellulose) (HPC)
[7] = dose: 200.0 mg/kg/injection, schedule: Q04DX003 (ip), vehicle: Klucel (hydroxypropylcellulose) (HPC)
[8] = dose: 400.0 mg/kg/injection, schedule: Q04DX003 (ip), vehicle: Klucel (hydroxypropylcellulose) (HPC)
[9] = dose: 100.0 mg/kg/injection, schedule: Q01DX001 (ip), vehicle: saline
[10] = dose: 200.0 mg/kg/injection, schedule: Q01DX001 (ip), vehicle: saline
[11] = dose: 400.0 mg/kg/injection, schedule: Q01DX001 (ip), vehicle: saline
[12] = dose: 100.0 mg/kg/injection, schedule: Q04DX002 (ip), vehicle: Klucel (hydroxypropylcellulose) (HPC)
[13] = dose: 200.0 mg/kg/injection, schedule: Q04DX002 (ip), vehicle: Klucel (hydroxypropylcellulose) (HPC)
[14] = dose: 400.0 mg/kg/injection, schedule: Q04DX002 (ip), vehicle: Klucel (hydroxypropylcellulose) (HPC)

Measured: T/C

NC(=O)c1csc(CCNC(=O)c2ccccc2)n1
inactive: dose: 100.0 mg/kg/injection, schedule: Q01DX001 (ip), vehicle: saline with Tween-80 100 % of control | [1] 100 % of control | dose: 100.0 mg/kg/injection, schedule: Q04DX003 (ip), vehicle: saline with Tween-80 95 % of control | dose: 200.0 mg/kg/injection, schedule: Q01DX001 (ip), vehicle: saline with Tween-80 102 % of control | [2] 100 % of control | dose: 200.0 mg/kg/injection, schedule: Q04DX003 (ip), vehicle: saline with Tween-80 103 % of control | dose: 400.0 mg/kg/injection, schedule: Q01DX001 (ip), vehicle: saline with Tween-80 104 % of control | [3] 89 % of control | dose: 400.0 mg/kg/injection, schedule: Q04DX003 (ip), vehicle: saline with Tween-80 101 % of control

CC(=O)OC(c1ccccc1)C(C)C (configuration not stated)
inactive: dose: 100.0 mg/kg/injection, schedule: Q04DX002 (ip), vehicle: saline 107 % of control | dose: 200.0 mg/kg/injection, schedule: Q04DX002 (ip), vehicle: saline 96 % of control | dose: 400.0 mg/kg/injection, schedule: Q04DX002 (ip), vehicle: saline 103 % of control

O=C(OC(C(=O)O)C(OC(=O)c1ccccc1)C(=O)O)c1ccccc1 (configuration not stated) (tested in a mixture with another compound)
inactive: dose: 15.0 mg/kg/injection, schedule: Q01DX001 (ip), vehicle: carboxymethylcellulose (CMC) 102 % of control | dose: 100.0 mg/kg/injection, schedule: Q01DX001 (ip), vehicle: other 109 % of control | dose: 200.0 mg/kg/injection, schedule: Q01DX001 (ip), vehicle: other 102 % of control | [4] 109 % of control

O=C(O)/C(=C(/Cc1ccccc1)C(=O)c1ccccc1)c1ccccc1
inactive: [5] 98 % of control | [1] 88 % of control | [2] 91 % of control

O=C(O)C(O)C(O)C(O)C(O)C(=O)O (configuration not stated)
inactive: dose: 50.0 mg/kg/injection, schedule: Q01DX009 (ip), vehicle: saline 92 % of control | dose: 100.0 mg/kg/injection, schedule: Q01DX009 (ip), vehicle: saline 94 % of control | [6] 95 % of control | dose: 200.0 mg/kg/injection, schedule: Q01DX009 (ip), vehicle: saline 89 % of control | [7] 91 % of control | dose: 400.0 mg/kg/injection, schedule: Q01DX009 (ip), vehicle: saline 92 % of control | [8] 91 % of control | dose: 600.0 mg/kg/injection, schedule: Q01DX001 (ip), vehicle: saline 90 % of control | dose: 600.0 mg/kg/injection, schedule: Q01DX009 (ip), vehicle: saline 100 % of control | dose: 800.0 mg/kg/injection, schedule: Q01DX001 (ip), vehicle: saline 93 % of control and 90 % of control | dose: 800.0 mg/kg/injection, schedule: Q01DX009 (ip), vehicle: saline 97 % of control | dose: 1000.0 mg/kg/injection, schedule: Q01DX001 (ip), vehicle: saline 95 % of control and 88 % of control | dose: 1000.0 mg/kg/injection, schedule: Q01DX009 (ip), vehicle: saline 100 % of control

O=C(O)C1CC(c2ccccc2)OC1=O (configuration not stated)
inactive: dose: 100.0 mg/kg/injection, schedule: Q01DX009 (ip), vehicle: gum acacia 101 % of control | dose: 100.0 mg/kg/injection, schedule: Q04DX003 (ip), vehicle: gum acacia 98 % of control | dose: 200.0 mg/kg/injection, schedule: Q01DX009 (ip), vehicle: gum acacia 89 % of control | dose: 200.0 mg/kg/injection, schedule: Q04DX003 (ip), vehicle: gum acacia 93 % of control | dose: 400.0 mg/kg/injection, schedule: Q01DX009 (ip), vehicle: gum acacia 106 % of control | dose: 400.0 mg/kg/injection, schedule: Q04DX003 (ip), vehicle: gum acacia 91 % of control

O=C(CCCC(=O)N/N=C/c1c2ccccc2cc2ccccc12)N/N=C/c1c2ccccc2cc2ccccc12
inactive: dose: 50.0 mg/kg/injection, schedule: Q01DX001 (ip), vehicle: saline 100 % of control | [9] 102 % of control | [10] 96 % of control | [11] 96 % of control

C[C@]12CC[C@@H]3c4ccc(OC5CCCCO5)cc4CC[C@H]3[C@@H]1CC[C@@H]2O (some centres not stated)
inactive: dose: 146.0 mg/kg/injection, schedule: Q01DX Z (ip), vehicle: steriod suspending solution 96 % of control | dose: 220.0 mg/kg/injection, schedule: Q01DX Z (ip), vehicle: steriod suspending solution 94 % of control | dose: 330.0 mg/kg/injection, schedule: Q01DX Z (ip), vehicle: steriod suspending solution 98 % of control | dose: 500.0 mg/kg/injection, schedule: Q01DX001 (sc), vehicle: steriod suspending solution 102 % of control | dose: 500.0 mg/kg/injection, schedule: Q01DX Z (ip), vehicle: steriod suspending solution 90 % of control | dose: 600.0 mg/kg/injection, schedule: Q01DX001 (sc), vehicle: steriod suspending solution 100 % of control | dose: 700.0 mg/kg/injection, schedule: Q01DX001 (sc), vehicle: steriod suspending solution 96 % of control | dose: 800.0 mg/kg/injection, schedule: Q01DX001 (sc), vehicle: steriod suspending solution 102 % of control

CC1C(=O)C2C1CS2(=O)=O (configuration not stated)
inactive: dose: 100.0 mg/kg/injection, schedule: Q04DX002 (ip), vehicle: DMSO 97 % of control | dose: 200.0 mg/kg/injection, schedule: Q04DX002 (ip), vehicle: DMSO 97 % of control | dose: 400.0 mg/kg/injection, schedule: Q04DX002 (ip), vehicle: DMSO 91 % of control

COc1ccc(C(=O)N2CCN(C)CC2)cc1OC
inactive: [9] 101 % of control | [10] 101 % of control | [11] 97 % of control

CC(C)=CCC/C(C)=C/COC(=O)C(CC=C(C)C)CCN1CCN(C)CC1 (configuration not stated)
inactive: [6] 104 % of control | [7] 93 % of control | [8] 104 % of control

O=c1cc(CCc2ccccc2)cc[nH]1
inactive: [9] 97 % of control | [10] 103 % of control | [11] 111 % of control

O=[N+]([O-])c1ccc(OCC2CO2)cc1 (configuration not stated)
inactive: dose: 100.0 mg/kg/injection, schedule: Q04DX002 (ip), vehicle: gum acacia 100 % of control | dose: 200.0 mg/kg/injection, schedule: Q04DX002 (ip), vehicle: gum acacia 117 % of control | dose: 400.0 mg/kg/injection, schedule: Q04DX002 (ip), vehicle: gum acacia 88 % of control

O=C(N/N=C/c1cccc(F)c1)c1ccc(Cl)cc1
inactive: [5] 94 % of control | [1] 91 % of control | [2] 94 % of control

O=C(COc1ccc(Cl)cc1)OCCBr
inactive: [12] 121 % of control | [13] 105 % of control | [14] 102 % of control

CCOc1ccc(Nc2cccc3ccccc23)cc1
inactive: [12] 94 % of control | [13] 88 % of control | [14] 98 % of control

CN1CN(c2ccccc2)C2(CCN(CC3Cc4cc(F)ccc4O3)CC2)C1=O (configuration not stated)
inactive: dose: 100.0 mg/kg/injection, schedule: Q01DX001 (ip), vehicle: Klucel (hydroxypropylcellulose) (HPC) 101 % of control | dose: 200.0 mg/kg/injection, schedule: Q01DX001 (ip), vehicle: Klucel (hydroxypropylcellulose) (HPC) 98 % of control | dose: 400.0 mg/kg/injection, schedule: Q01DX001 (ip), vehicle: Klucel (hydroxypropylcellulose) (HPC) 96 % of control

O=C(NCCCl)N1C(=O)NC(=O)C1(c1ccccc1)c1ccccc1
inactive: [1] 96 % of control | dose: 100.0 mg/kg/injection, schedule: Q04DX003 (ip), vehicle: saline 88 % of control | [2] 98 % of control | dose: 200.0 mg/kg/injection, schedule: Q04DX003 (ip), vehicle: saline 91 % of control | [3] 96 % of control | dose: 400.0 mg/kg/injection, schedule: Q04DX003 (ip), vehicle: saline 98 % of control

ClC(Cl)(Cl)c1ccc(C2OCCO2)cc1
inactive: dose: 177.0 mg/kg/injection, schedule: Q01DX001 (ip), vehicle: other 98 % of control | dose: 266.0 mg/kg/injection, schedule: Q01DX001 (ip), vehicle: other 110 % of control | [4] 94 % of control | dose: 600.0 mg/kg/injection, schedule: Q01DX001 (ip), vehicle: other 111 % of control
